Laboratory results reported in patent publication US12083143B2, “MLK-regulated microRNAs in angiogenesis and tumor development” (University of Massachusetts, priority 2018, dated 2024).

Experiments:
LLC1 cells = assay: LLC1 lung tumor formation after tail vein injection (experimental metastasis); assay type: in vivo, mouse; conditions: 1×10^6 LLC1 cells with MLK inhibitor or solvent in 200 ul PBS into tail vein of WT mice; lung isolated after 20 days
Protocol: 1×10^6 LLC1 cells, with either MLK inhibitor (URMC-099) or solvent in 200 ul of sterile PBS were injected into the tail vein of WT mice (12-16 week of age). After 20 days of injection Lung was isolated (A) and tumor number were counted (Control—White bar; MLK inhibitor—Black bar) (B).
We also tested the role of MLK inhibitor in Lung tumor formation. […] After 20 days of injection Lung was isolated and tumor number were counted (Control—White bar; MLK inhibitor—Black bar).

primary MLEC cells = assay: qPCR of pro-angiogenic genes in primary MLEC after miR146a mimic transfection, 90 minutes hypoxia; assay type: cell-based, mouse; conditions: mimic transfected 48 hours, 1% O2, versus control
Protocol: Either control or miR146a mimic were transfected into primary MLEC cells for 48 hours. Cells were incubated for 90 minutes in hypoxia chamber in the presence of 1% O2. RNA was isolated and qPCR was performed for genes as noted.
(§1) Total RNA was extracted from cells and tissues with the RNeasy Mini Kit (Qiagen) or TRIzol reagent (Invitrogen), and 1 μg of total RNA was reverse transcribed with oligo(dT) primers for cDNA synthesis. The expression of mRNA was examined by quantitative PCR analysis using a QuantStudio™ 6 Flex Real-Time PCR System (Applied Biosystems). Taqman© assays were used to quantitate Pgf, Adam8, Mmp9, Angptl4, Hprt (Mm00446968—m1) and Gapdh (4352339E-0904021) mRNA (Applied Biosystems). The 2^−ΔΔCT method is used for relative quantification of gene as described elsewhere^5,6. reference genes of Hprt and Gapdh have been used to normalize the PCRs in each sample.

[1] = test system: mouse lung endothelial cell (MLEC); assay: qRT-PCR of angiogenesis related genes in WT MLEC after miR146a mimic, 4 hours post hypoxia; assay type: cell-based; conditions: mimic 48 hours, versus control
Protocol: (A-D) mRNA was isolated from WT mouse lung endothelial cell (MLEC) treated either with control or miR146a mimic for 48 hours and qRT-PCR was performed for different angiogenesis related genes after 4 hours post hypoxia
Quiescent monolayers of WT and Mlk2/3−/− primary endothelial cell MLECs were exposed to normoxia (21% O2) or hypoxia (1% O2) for 0-24 h in a hypoxia chamber. After exposure cells were immediately harvested and examined for expression of genes by qPCR or immunoblots.
as §1

Compound	LLC1 tumor formation in vivo (lung tumor number) (LLC1 cells)	expression of pro-angiogenic factors (VEGF, Angptl4, Angpt2, MMP9) by qPCR (primary MLEC cells)	expression of pro-angiogenic factors (VEGF, Angptl4, Angpt2, MMP9) by qPCR (primary MLEC cells; listed as miR146a)	angiogenesis related gene expression by qRT-PCR [1]
CN1CCN(Cc2ccc(-c3cnc4[nH]cc(-c5ccc6[nH]ccc6c5)c4c3)cc2)CC1 [URMC-099]	suppressed LLC1 tumor formation in vivo			
ugagaacugaauuccauggguu (SEQ ID NO:3) [miR146a mimic]		down-regulated	suppressed the pro-angiogenic factors	mimic the MLK deficient phenotype
